Laboratory results from PMC6121439 (International Journal of Molecular Sciences, 2018).
No end group written: not given here.

Key:
[1] = test system: E. coli genes DnaK, ompC, sbmA; assay: Bacterial gene expression by RT-qPCR; type: cell-based, Escherichia coli; settings: 0.1 µM, 30 min, RT-qPCR normalized to GAPDH
Method: (§1) The bacterial gene expression of proteins implicated in stress pathways and bacterial resistance response was evaluated following incubation with sub-lethal concentrations of the peptides. The following genes were selected: DnaK gene encoding for a chaperone, ompC gene encoding for a protein porin; sbmA encoding for an integral inner membrane protein that participates in an ABC transporter, parE encoding for a DNA topoisomerase IV and MprF for a lysyl transferase that ensures the synthesis of lysylphosphatidylglycerol (LPG). Total bacterial RNA was extracted using the mirVAna™ Isolation Kit, which integrates an organic extraction and solid-phase extraction to obtain high yields of ultra-pure, high quality RNA. […] Ampicillin was used at the same concentration as a positive control. After incubation cells were sedimented and resuspended in lysis buffer. RNA isolation was done according to manufacturer’s instructions. The amount of RNA extracted was quantified using Quantus™ Fluorometer (Promega). […] Complementary DNA (cDNA) synthesis is the first step of the two-step quantitative reverse transcriptase Polymerase Chain Reaction (RT-qPCR). cDNA was generated by the enzyme reverse transcriptase (RT). An aliquot of 1000 ng of total RNA was used to synthesize cDNA according to the manufacture instruction of iScript™ cDNA Synthesis Kit.
Gene expression of Escherichia coli and Staphylococcus aureus after peptide incubation was determined by Real Time Quantitative Polymerase Chain Reaction (RT-qPCR). The amount of amplified product was measured at each PCR cycle by using fluorescent probes and reading the signal emitted from the dyes while performing the thermal cycling. 1 μL of cDNA (5 ng) was mixed with 2 μL of RNase free water, 5 μL of iTaq Universal Master SYBR green Supermix, 1 μL of each primer of interest (500 nM), for a total volume of 10 μL per reaction. The genes studied in E. coli cells correspond to DnaK, ompC, SbmA and 16S MprF, parE for S. aureus. GAPDH was used as housekeeping for date normalization in the qPCR assays. Gene expression level was analyzed using a comparative quantification method ΔCq. This method assesses the fold change compared to a calibrator sample (control or group of reference). Counts for genes of interest were adjusted in relation to a reference (housekeeper) gene GAPDH. Reactions were subjected to 60 °C for 1 min and 95 °C for 10 min, followed by 40 cycles of 95 °C for 15 s and 60 °C for 1 min. Each sample was analyzed in triplicate. Data analysis was performed using Bio-Rad CFX Manager. The figure of gene level expression was designed by R project.

E. coli (BL21) [2] = assay: Minimum bactericidal concentration (CFU counting); type: cell-based, Escherichia coli; settings: ~5 × 10^5 CFU/mL, peptide 20 to 0.1 µM in Hepes 20 mM, 0.1 M NaCl, pH 7.5, 4 h at 37 °C, then plating, two independent experiments in triplicate
Method: (§2) Minimum Bactericidal Concentrations (MBC100) were determined by CFU counting following plating of bacterial culture onto Petri dishes after four hours of incubation with serial peptide concentrations. The ED50 was calculated by ATP quantification using the BacTiter-Glo™ Microbial Cell Viability kit (Promega, Madison, WI, USA). Cell cytotoxicity was quantified using resazurin reduction in human monocytes. Fifty percent cytotoxic concentration (CC50) was calculated as described in Materials and methods. […] Values are given as mean ± SEM.
(§3) The MBC of each peptide was determined as described previously. Bacteria were incubated at 37 °C overnight in Luria-Bertani broth (LB) and diluted to approximately 5 × 10^5 CFU/mL. The strains used in this study corresponded to Escherichia coli BL21 from Novagen (Madison, WI, USA), Staphylococcus aureus (ATCC502A) obtained from the Colección Española de Cultivos tipo (CECT), Universidad de Valencia, Spain, Pseudomonas aeruginosa (ATCC® 15692, PAO1), from the American Type Culture Collection (ATCC; Rockville, MD, USA) and P. aeruginosa PA14 were used as reference strains. Three clinical isolates of S. aureus, MRSA (34026, 36055 and 39413) and two clinical isolates of P. aeruginosa (M8C1 and M18C1) were obtained by the kind donation of the Centro de Investigaciones Microbiológicas, CIMIC (Universidad de los Andes, Bogotá, Colombia). […]

S. aureus (ATCC 502A) [3] = assay: Minimum bactericidal concentration (CFU counting); type: cell-based, Staphylococcus aureus; settings: ~5 × 10^5 CFU/mL, peptide 20 to 0.1 µM in Hepes 20 mM, 0.1 M NaCl, pH 7.5, 4 h at 37 °C, then plating, two independent experiments in triplicate
Method: as §2, §3

E. coli (BL21) [4] = assay: Bacterial viability by ATP quantification (BacTiter-Glo); type: cell-based, Escherichia coli; settings: ATP luminescence, 4 h at 37 °C, Hepes 20 mM pH 7.5, 0.1 M NaCl, peptide 100 to 0.1 µM, mean ± SEM, three replicates of two experiments
Method: as §2
(§4) Antibacterial activity was assayed by following the cell viability of E. coli and S. aureus, using the BacTiter-Glo™ Microbial Cell Viability kit (Promega), which measures the number of viable bacterial cells, by ATP quantification. ATP, as an indicator of metabolically active cells, is indirectly measured by a coupled luminescence detection assay. The luminescent signal is proportional to the amount of ATP required for the conversion of luciferin into oxyluciferin in the presence of luciferase.

P. aeruginosa (PA01) = assay: as above; type: cell-based, Pseudomonas aeruginosa; settings: P. aeruginosa PA01 reference strain; ATP luminescence; 4 h at 37 °C; mean ± SEM, three replicates of two experiments
Method: as §2
(§5) The MBC of each peptide was determined as described previously. Bacteria were incubated at 37 °C overnight in Luria-Bertani broth (LB) and diluted to approximately 5 × 10^5 CFU/mL. […]
as §4, with “The luminescent signal is proportional to the amount of ATP required for the conversion of luciferin into oxyluciferin in the presence of luciferase.” left out

P. aeruginosa (PA14) = assay: as above; type: cell-based, Pseudomonas aeruginosa; settings: P. aeruginosa PA14 reference strain; ATP luminescence; 4 h at 37 °C; mean ± SEM, three replicates of two experiments
Method: as §2, §5
as §4, with “The luminescent signal is proportional to the amount of ATP required for the conversion of luciferin into oxyluciferin in the presence of luciferase.” left out

[5] = test system: P. aeruginosa (M18C1) clinical isolate; assay: as above; type: cell-based, Pseudomonas aeruginosa; settings: ATP luminescence, 4 h at 37 °C, peptide up to 100 µM
Method: as §2, §5
as §4, with “The luminescent signal is proportional to the amount of ATP required for the conversion of luciferin into oxyluciferin in the presence of luciferase.” left out

[6] = test system: P. aeruginosa (M8C1) clinical isolate; assay: as above; type: cell-based, Pseudomonas aeruginosa; settings: ATP luminescence, 4 h at 37 °C, peptide up to 100 µM
Method: as §2, §5
as §4, with “The luminescent signal is proportional to the amount of ATP required for the conversion of luciferin into oxyluciferin in the presence of luciferase.” left out

S. aureus (ATCC 502A) [7] = assay: as above; type: cell-based, Staphylococcus aureus; settings: ATP luminescence, 4 h at 37 °C, mean ± SEM, three replicates of two experiments
Method: as §2, §4

[8] = test system: S.aureus (34026) clinical isolate, MRSA; assay: as above; type: cell-based, Staphylococcus aureus; settings: ATP luminescence, 4 h at 37 °C, mean ± SEM, three replicates of two experiments
Method: as §2, §5
as §4, with “The luminescent signal is proportional to the amount of ATP required for the conversion of luciferin into oxyluciferin in the presence of luciferase.” left out

[9] = test system: S.aureus (39413) clinical isolate, MRSA; assay: as above; type: cell-based, Staphylococcus aureus; settings: ATP luminescence, 4 h at 37 °C, mean ± SEM, three replicates of two experiments
Method: as §2, §5
as §4, with “The luminescent signal is proportional to the amount of ATP required for the conversion of luciferin into oxyluciferin in the presence of luciferase.” left out

[10] = test system: S.aureus (36055) clinical isolate, MRSA; assay: as above; type: cell-based, Staphylococcus aureus; settings: ATP luminescence, 4 h at 37 °C, peptide up to 100 µM
Method: as §2, §5
as §4, with “The luminescent signal is proportional to the amount of ATP required for the conversion of luciferin into oxyluciferin in the presence of luciferase.” left out

primary human monocytes = assay: Cytotoxicity by resazurin reduction; type: cell-based; settings: human monocytes 4 × 10^5 cells/well, peptide up to 100 µM, 72 h at 37 °C
Method: as §2

E. coli cells [11] = assay: Bacterial membrane depolarization, DiSC3(5) dye; type: cell-based, Escherichia coli; settings: DiSC3(5) 0.4 µM, peptide 0.1 to 5 µM, 20 °C, mean ± SEM
E. coli cells [12] = assay: Bacterial cell leakage, SYTOX Green; type: cell-based, Escherichia coli; settings: SYTOX Green 5 µM, 40 min, Triton X-100 = maximum, mean ± SEM
[13] = Liposome leakage, ANTS/DPX; settings: DOPC/DOPG (3:2) LUVs 30 µM, 37 °C, 20 mM NaCl, 10 mM Tris/HCl pH 7.5
E. coli cells [14] = assay: Minimum agglutination concentration on bacteria; type: cell-based, Escherichia coli; settings: Tris-HCl, 0.1 M NaCl, pH 7.5, 1 h at 37 °C, visual inspection, 50× stereoscope
Method: For determination of minimum agglutination concentration (MAC) values, bacterial cells were grown at 37 °C to mid-exponential phase (OD600 = 0.6), centrifuged at 5000× g for 2 min, and resuspended in Tris-HCl buffer, 0.1 M NaCl, pH 7.5 to give an absorbance of 0.2 at 600 nm. A 100 µL aliquot of the bacterial suspension was incubated with the peptide at various (0.01–10 µM) concentrations at 37 °C for 1 h. Agglutination behavior was observed by visual inspection using a 50× stereoscope microscope and the MAC value was expressed as described.

[15] = Liposome agglutination by dynamic light scattering; settings: DOPC/DOPG LUVs 30 µM; DLS; 25 °C; 10 mM Tris/HCl, 100 mM NaCl pH 7.4; peptide 0.1–2 µM
pET28 plasmid DNA = assay: DNA binding gel retardation assay; settings: 200 ng pET28 plasmid DNA; peptide-to-DNA weight ratios 2.5:1, 5:1, 10:1; 20 min room temperature; 1.0% agarose gel
E. coli cells [16] = assay: FACS internalization of FITC-labeled peptides; type: cell-based, Escherichia coli; settings: FITC-labeled peptide, sublethal concentration (0.5 µM), 10 min
Method: (§6) We performed FACS analysis in order to analyze the internalization of the FITC labeled peptides into E. coli and S. aureus cells. […] After corroborating the internalization of the peptides, the labeled peptide distribution was evaluated by FACS. Live/dead cell population was analyzed by monitoring the influx of propidium iodide (PI) at 10 min and 4 h of incubation.
(§7) Bacterial cell overnight culture was inoculated in a fresh LB to reach logarithmic phase OD600 of 0.2. A 500 µL aliquot of the bacterial suspension was incubated with 0.5 µM of each peptide for 10 min. After incubation and subsequently washes with 1× PBS at least thrice to remove presence of FITC-labeled peptide in the medium, 20,000 cells were subjected to FACS analysis using a FACSCalibur cytometer (BD Biosciences, Franklin Lakes, NJ, USA). The peptide bacterial uptake was assayed using 0.10 µM and 0.5 µM of each peptide at the first 10 min and after 4 h of peptide incubation.
(§8) (1 picture or pasted object on this page, not shown here)

S. aureus cells = assay: FACS internalization of FITC-labeled peptides; type: cell-based, Staphylococcus aureus; settings: FITC-labeled peptide, sublethal concentration (0.5 µM), 10 min
Method: as §6, §7, §8

[17] = test system: S. aureus genes 16S, parE, MprF; assay: Bacterial gene expression by RT-qPCR; type: cell-based, Staphylococcus aureus; settings: 0.1 µM, 30 min, RT-qPCR normalized to GAPDH
Method: as §1
Gene expression of Escherichia coli and Staphylococcus aureus after peptide incubation was determined by Real Time Quantitative Polymerase Chain Reaction (RT-qPCR). The amount of amplified product was measured at each PCR cycle by using fluorescent probes and reading the signal emitted from the dyes while performing the thermal cycling. 1 μL of cDNA (5 ng) was mixed with 2 μL of RNase free water, 5 μL of iTaq Universal Master SYBR green Supermix, 1 μL of each primer of interest (500 nM), for a total volume of 10 μL per reaction. The genes studied in E. coli cells correspond to DnaK, ompC, SbmA and 16S MprF, parE for S. aureus. […] Gene expression level was analyzed using a comparative quantification method ΔCq. […] Each sample was analyzed in triplicate. […]

CC1(C)S[C@@H]2[C@H](NC(=O)[C@H](N)c3ccccc3)C(=O)N2[C@H]1C(=O)O [ampicillin, Ampicillin, reference compound]
DnaK gene expression [1]: upregulated | sbmA gene expression [1]: mild reduction

GLVGTLLGHIGKAILGG-OH [Peptide F2.3S, Frenatin 2.3S]
MBC100 (E. coli (BL21) [2]): 0.62 µM | MBC100 (S. aureus (ATCC 502A) [3]): 1.87 µM | ED50 (E. coli (BL21) [4]): 0.23 ± 0.01 µM | ED50 (P. aeruginosa (PA01)): 3.4 ± 0.062 µM | ED50 (P. aeruginosa (PA14)): 3.1 ± 0.003 µM | ED50 [5]: >100 µM | ED50 [6]: >100 µM | ED50 (S. aureus (ATCC 502A) [7]): 1.1 ± 0.07 µM | ED50 [8]: 55.82 ± 0.005 µM | ED50 [9]: 11.99 ± 0.001 µM | ED50 [10]: >100 µM | CC50 (primary human monocytes): >100 µM | Depolarization (ED50), Bacteria (E. coli cells [11]): 0.1 ± 0.05 µM | Leakage (ED50), Bacteria (E. coli cells [12]): 0.1 ± 0.07 µM | Leakage (ED50), Liposomes [13]: 0.1 µM | Agglutination (MAC), Bacteria (E. coli cells [14]): >5 µM | Agglutination (MAC), Liposomes [15]: >2 µM | DNA-binding activity (gel retardation) (pET28 plasmid DNA): high DNA-binding activity | Internalization into bacterial cells (FACS) (E. coli cells [16]): internalization within bacterial cells | Internalization into bacterial cells (FACS) (S. aureus cells): internalization within bacterial cells | DnaK gene expression [1]: upregulation | ompC gene expression [1]: upregulated | sbmA gene expression [1]: downregulation | 16S gene expression [17]: did not induce significant changes | MprF gene expression [17]: did not induce significant changes | parE gene expression [17]: did not induce significant changes
